Experimental findings from paper PMC4167585 (Cell, 2014) are described below.

pKi: −log10 of the molar value.

Broadly, the pKi is −log10 of the Ki, conventionally taken in molar units. A lower pKi goes with a high Ki. The Km is the concentration of substrate that gives half-maximal velocity. By kcat is commonly meant the number of substrate molecules converted per active site and unit of time at saturation.

Series [1] addresses T1, human microsomal GST (MGST1) (Homo sapiens, UniProt P10620).
T1 sequence (P10620 1-155): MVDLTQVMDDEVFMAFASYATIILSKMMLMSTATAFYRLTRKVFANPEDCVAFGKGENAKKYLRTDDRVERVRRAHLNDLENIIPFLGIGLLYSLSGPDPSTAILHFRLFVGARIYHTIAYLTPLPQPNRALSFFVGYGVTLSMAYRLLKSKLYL
Nature of the series: GST activity toward CDNB. In kind it is biochemical. The following applies: GSH co-substrate.

Series [2] concerns the target EXP1 (Plasmodium falciparum, UniProt Q8IIF0). Nature of the series: inhibition of GSH-CDNB conjugation, Dixon plot. The series is classed as biochemical.
In series [3] the test system is C=CC1=C(C)C2=Cc3c(C=C)c(C)c4[n]3[Fe+][n]3c(c(C)c(CCC(=O)O)c3=CC3=NC(=C4)C(C)=C3CCC(=O)O)=CC1=N2. The series can be described thus: purified protein. Conditions: 2 mM GSH, 100 nM enzyme, pH 6.5, 0.1% Triton X-100.

On to `O=[N+]([O-])c1ccc(Cl)c([N+](=O)[O-])c1` [1-chloro-2,4-dinitrobenzene], for which, in series [1], the “GST activity toward CDNB” value is reported as “comparable to that of the human microsomal GST (MGST1, Figure S3D-F)”.

In the case of `C=CC1=C(C)C2=Cc3c(C=C)c(C)c4[n]3[Fe+][n]3c(c(C)c(CCC(=O)O)c3=CC3=NC(=C4)C(C)=C3CCC(=O)O)=CC1=N2` [hematin], in series [2], the pKi is 6.77.

On to EXP1 (Plasmodium falciparum 3D7), for which, in series [3], the Km is 0.251 µM and the kcat was 7.7 s⁻¹.
